From patent publication EP4772497A1, “POLYMORPHS OF NITROGEN-CONTAINING HETEROCYCLIC COMPOUNDS, AND USES THEREOF” (BNH Research Co., Ltd., priority 2023, dated 2025)
Values after ≈ are worked out from the molar mass of the structure shown.

What was measured:
[1] = Competitive equilibrium experiments for crystalline forms A and C (XRPD, DSC); format: physicochemical; details: forms A and C slurried in acetone, acetonitrile, ethyl acetate, isopropyl acetate, acetone/water (35:65) at 5°C, 25°C, 50°C for 1 week
Procedure: Competitive equilibrium experiments were performed in various solvent systems to determine the relative stability of crystalline forms A and C.
About 15 mg of crystalline form A and 15 mg of crystalline form C were added to 0.2 mL of a saturated solution of each of selected solvents (acetone, acetonitrile, ethyl acetate, isopropyl acetate, and acetone/water (v:v=35:65)) (Table 9). The obtained suspensions were stirred at 5°C, 25°C, and 50°C, respectively, for 1 week. The solid portion (wet cake) was isolated by centrifugal filtration and analyzed by XRPD and DSC, and the results are shown in Figs. 7a to 7f.

[2] = Approximate solubility of crystalline form C in dissolution media by visual observation; format: physicochemical; details: thermodynamic from solid, 37°C per table caption (method: 25°C)
Procedure: About 4 mg of crystalline form C was weighed into a 4 mL or 8 mL glass vial, and 4 to 9 mL of dissolution medium was added to dissolve the drug substance at 25°C. The approximate solubility was determined by visual observation.
The solvents and solubility results are shown in Table 11 (solubility of crystalline form C at 37°C).

[3] = Hygroscopicity by dynamic vapor sorption (DVS); format: physicochemical
Procedure: Instrument model: SMS DVS Advantage Dynamic Vapor Sorption System Test method: A sample (10 to 15 mg) is taken and placed on a DVS sample pan, and measurement is performed. Detailed DVS parameters are as follows. Temperature: 25°C Equilibrium dm/dt = 0.002%/min: (minimum: 60 min, maximum: 240 min) Relative humidity (RH (%)) measurement gradient: 10% Relative Humidity (RH (%)) measurement gradient cycle: 40-0-95-0-40% The following description provides the criteria for determining hygroscopicity: [Table 6]
The moisture adsorption and desorption behavior of crystalline form C was investigated by the DVS test of Experimental Method 5. XRPD was performed to confirm any change in form after the DVS test.

[4] = Compression simulation experiment (XRPD); format: physicochemical; details: compressed for 5 minutes at 2 MPa, 5 MPa, and 10 MPa
Procedure: About 5 mg of crystalline form C was compressed for 5 minutes at 2 MPa, 5 MPa, and 10 MPa using a hydraulic press. Potential changes in form and crystallinity were evaluated by XRPD.
The XRPD results of the compression simulation experiments are shown in Fig. 10, where CSE1, CSE2, and CSE3 represent experiment IDs for pressures of 2 MPa, 5 MPa, and 10 MPa, respectively.

[5] = system: C57BL/6J mice; assay: TC synaptic potency and GABA/AMPA ratio in the barrel cortex after oral administration; format: in vivo; details: 8-week-old C57BL/6J mice, 1 mg/kg orally, barrel cortex (layer 4)
Procedure: Following oral administration of crystalline form C, the efficacy of the compound was evaluated by measuring the potency and the GABA/AMPA ratio in the barrel cortex.
Crystalline form C was orally administered at a dose of 1 mg/kg to 8-week-old C57BL/6J mice. For the control group, 200 µL of a mixed solution of DMSO (10):PEG400 (44):saline (55) was orally administered as a vehicle. Experiments were performed on five mice each for the control (vehicle) group and the compound-treated group.

SMILES: C[C@@H]1CC[C@H](C(=O)O)CN1C(=O)Cc1ccc(F)cc1Cl [Crystalline form C, (3S,6R)-1-(2-(2-chloro-4-fluorophenyl)acetyl)-6-methylpiperidine-3-carboxylic acid]
- relative stability of crystalline forms A and C [1]: most thermodynamically stable crystalline form below 50 °C
- solubility ([2]; aqueous buffer, ES2: pH 4.5 acetate buffer (50mM)): 900 to 1000 µg/mL (≈ 2.87 to 3.19 mM)
- solubility ([2]; aqueous buffer, ES3: pH 6.8 phosphate buffer (50mM)): 1800 to 2000 µg/mL (≈ 5.74 to 6.37 mM)
- solubility ([2]; simulated gastric fluid, ES1: pH 1.2 HCl buffer (0.2N)): 500 to 600 µg/mL (≈ 1.59 to 1.91 mM)
- solubility ([2]; simulated gastric fluid, ES4: SGF, pH 2.0): 400 to 500 µg/mL (≈ 1.27 to 1.59 mM)
- solubility ([2]; ES5: FaSSIF-v1, pH 6.5): 1800 to 2000 µg/mL (≈ 5.74 to 6.37 mM)
- solubility ([2]; ES6: FeSSIF-v1, pH 5.0): 1800 to 2000 µg/mL (≈ 5.74 to 6.37 mM)
- solubility ([2]; ES7: Water): 600 to 700 µg/mL (≈ 1.91 to 2.23 mM)
- Classification of hygroscopicity ([3]; DVS, 25°C): non-hygroscopic
- Weight change (%) in 1st adsorption ([3]; Relative humidity 0% at 25°C): 0%
- Weight change (%) in 1st desorption ([3]; Relative humidity 0% at 25°C): 0%
- Weight change (%) in 2nd adsorption ([3]; Relative humidity 0% at 25°C): 0%
- Weight change (%) in 2nd desorption ([3]; Relative humidity 0% at 25°C): 0%
- Weight change (%) in 1st adsorption ([3]; Relative humidity 10% at 25°C): 0%
- Weight change (%) in 1st desorption ([3]; Relative humidity 10% at 25°C): 0%
- Weight change (%) in 2nd adsorption ([3]; Relative humidity 10% at 25°C): 0%
- Weight change (%) in 2nd desorption ([3]; Relative humidity 10% at 25°C): 0%
- Weight change (%) in 1st adsorption ([3]; Relative humidity 20% at 25°C): 0%
- Weight change (%) in 1st desorption ([3]; Relative humidity 20% at 25°C): 0%
- Weight change (%) in 2nd adsorption ([3]; Relative humidity 20% at 25°C): 0%
- Weight change (%) in 2nd desorption ([3]; Relative humidity 20% at 25°C): 0%
- Weight change (%) in 1st adsorption ([3]; Relative humidity 30% at 25°C): 0%
- Weight change (%) in 1st desorption ([3]; Relative humidity 30% at 25°C): 0%
- Weight change (%) in 2nd adsorption ([3]; Relative humidity 30% at 25°C): 0%
- Weight change (%) in 2nd desorption ([3]; Relative humidity 30% at 25°C): 0%
- Weight change (%) in 1st adsorption ([3]; Relative humidity 40% at 25°C): 0%
- Weight change (%) in 1st desorption ([3]; Relative humidity 40% at 25°C): 0%
- Weight change (%) in 2nd adsorption ([3]; Relative humidity 40% at 25°C): 0%
- Weight change (%) in 2nd desorption ([3]; Relative humidity 40% at 25°C): 0.1%
- Weight change (%) in 1st adsorption ([3]; Relative humidity 50% at 25°C): 0.1%
- Weight change (%) in 2nd desorption ([3]; Relative humidity 50% at 25°C): 0.1%
- Weight change (%) in 1st adsorption ([3]; Relative humidity 60% at 25°C): 0.1%
- Weight change (%) in 2nd desorption ([3]; Relative humidity 60% at 25°C): 0.1%
- Weight change (%) in 1st adsorption ([3]; Relative humidity 70% at 25°C): 0.1%
- Weight change (%) in 2nd desorption ([3]; Relative humidity 70% at 25°C): 0.1%
- Weight change (%) in 1st adsorption ([3]; Relative humidity 80% at 25°C): 0.1%
- Weight change (%) in 2nd desorption ([3]; Relative humidity 80% at 25°C): 0.1%
- Weight change (%) in 1st adsorption ([3]; Relative humidity 90% at 25°C): 0.1%
- Weight change (%) in 2nd desorption ([3]; Relative humidity 90% at 25°C): 0.1%
- Weight change (%) in 1st adsorption ([3]; Relative humidity 95% at 25°C): 0.1%
- Weight change (%) in 2nd desorption ([3]; Relative humidity 95% at 25°C): 0.1%
- crystalline form after the DVS test (XRPD) ([3]; sample obtained after the DVS test): still exhibits crystalline pattern C
- moisture uptake ([3]; up to 95% RH, 25°C): less than 0.2%
- change in form and crystallinity on compression [4]: without any change in form or apparent decrease in crystallinity
- TC synaptic potency [5]: increase TC synaptic potency
- balance of excitation/inhibition (GABA/AMPA ratio) [5]: maintaining the balance of excitation/inhibition
